Reference: patent US10980769B2, “Tiglien-3-one derivatives” (QBIOTICS PTY LTD, priority 2005, dated 2021)
Entries after “also recorded” stand apart in the source; their conditions may differ.

How the values were obtained:
[1] = system: normal human fibroblasts (NFF); experiment: Growth inhibition of cultured cells; assay type: cell-based
Method: (§1) Briefly, a range of tumour cells including mouse melanoma, human melanoma, mouse squamous cell carcinoma, human breast, human colon, human leukemia and human lung and normal human cells including normal human fibroblasts were seeded at 2-5,000 per microtitre well (96-well plate) in 10% FCS-RPMI 1640 culture medium, treated, and allowed to grow until the controls were nearly confluent (5-6 days). The wells were then washed twice with PBS, fix with ethanol for a minimum of 5 minutes and washed with water. SRB solution (50 μL of 0.4% in 1% acetic acid) was added and left at room temperature for a minimum of 15 minutes. The plate was washed rapidly with tap water and then twice with 1% acetic acid. After addition of 100 μL/well of 10 mM Tris base (unbuffered, pH>9), plates were left for a minimum of 5 minutes, then the absorbance was read at 564 nm on the ELISA reader, with a 3 second prior shaking. After subtraction of a blank (wells with no cells, absorbance typically about 0.04), growth inhibition was calculated as % of the untreated control and plotted against dose.
(§2) Briefly, a suspension of a range of tumour cells including mouse melanoma, human melanoma, mouse squamous cell carcinoma, human breast, human colon, human leukemia and human lung and normal human cells including normal human fibroblasts were seeded into round-bottom microtitre plates in 10% FCS-RPMI 1640 culture medium, treated and allowed to grow for 5-6 days. To measure cell growth, 20 μL of a combined MTS/PMS solution (Promega Cell ProliferationAssay Kit Cat #G5430) was added to each well of the 96 well assay plate. After 1-4 hours the plates were placed in the ELISA plate reader and the absorbance read at 490 nm. After subtraction of a blank (wells with no cells, absorbance typically about 0.4), growth inhibition was calculated as % of the untreated control and plotted against dose.
(§3) For growth inhibition assays, cells (2000-5000/well) were seeded in 96-well plates in duplicate, treated with drug next day and allowed to grow for a further 5-6 days. The plates were then washed in PBS (phosphate buffered saline, pH 7.2), fixed with ethanol and stained by addition of 50 μL 0.4% SRB (sulforhodamine) in 1% acetic acid. The plate was left at room temperature for a minimum of 15 minutes, then washed rapidly with tap water and then twice with 1% acetic acid. After addition of 100 μL/well of 10 mM Tris base (unbuffered, pH>9), plates were left for a minimum of 5 minutes, then the absorbance was read at 564 nm on the ELISA reader, with a 3 second prior shaking. After subtraction of a blank (wells with no cells, typically about 0.04), growth inhibition was calculated as % of the untreated control and plotted against dose.

human breast MCF-7 = experiment: Growth inhibition of cultured cells; assay type: cell-based; settings: human breast MCF-7
Method: as §1, §2, §3

human leukemia K562 = experiment: Growth inhibition of cultured cells; assay type: cell-based
Method: as §1, §2, §3

fly eggs = experiment: DipteraTOX fly development bioassay; design: key: A value of A in DipG, Dip P or Dip H represents very active; a value of P represents active; settings: 250 μg per mL in agar
Method: DipteraTOX is referred to herein as DipG, DipP and DipH. DipG represents no grazing of larva. DipP represents no pupae formation and Dip H represents no hatching of flies. A value of A in DipG, Dip P or Dip H represents very active and a value of P represents active. In DipteraTox the fly eggs were applied to the surface of an agar matrix containing 250 μg per mL of the test chemical and allowed to hatch, develop and pupate for a period up of two weeks. The assay was monitored at two discrete times to determine the extent of grazing of the agar matrix at Week 1 and the presence of adult flies at Week 2.

Giardia spp. = experiment: TriTOX (Gi) anti-protozoan bioassay; assay type: cell-based
Method: is a microtitre plate based chromogenic bioassay for the screening of anti-protozoan activity of pathogenic, anaerobic/microaerophilic protozoans for example Giardia spp. and Trichomonas spp. The bioassays are run under anaerobic conditions and features species specific chromogens. The minimum inhibitory concentrations (approximate LD99) are determined by the following method: stock solutions of the unknowns are serially diluted ½ to give 12 concentrations over a 2,048-fold range. Aliquots of each concentration(s) are applied to the wells of 96-well microtitre plates and diluted with media. […] The lowest concentration at which the compound is active is noted as the minimum inhibitory concentration (MIC). Additionally, microscopic inspection is carried out to identify any patterns of morphological change that may be consistent with a type of toxicity and therefore mode of action. Giardia spp. was utilized for this assay.

Haemonchus contortus = experiment: NemaTOX (Ne) anthelmintic larval development bioassay
Method: NemaTOX (alternatively referred to herein as Ne) is an anthelmintic bioassay, applicable to all parasitic nematodes with free-living life cycle stages, and can be used as a screen to detect activity and define the species spectrum of compounds against parasitic nematodes and examine the impact of pre-existing resistance to other anthelmintic classes on potency. Haemonchus contortus was utilised for this assay.
The effect on larval development was determined in this assay by the method described by Gill et al. (1995) Int. J. Parasitol. 25: 463-470. Briefly, in this assay nematode eggs were applied to the surface of an agar matrix containing the test sample and allowed to develop through to the L3, infective stage (6 days). At this time the stage of larval development reached and any unusual features (deformity, paralysis, toxicity) were noted by microscopic examination.

Bacillus subtilis = experiment: ProTOX (Bs) antibacterial bioassay; assay type: cell-based
From the text: ProTOX, (alternatively referred to herein as Bs) is an antibacterial bioassay, broadly applicable to most aerobic and anaerobic bacteria. The bioassay features a solid phase agar base into which the test compound has been incorporated together with a chromogen. As the bacteria multiply in the well, the chromogen is metabolised from blue in a two-step process to a colourless compound. Compounds with potent bactericidal activity inhibit bacterial metabolism of the chromogen while bacteriostatic compounds induce limited metabolism as indicated by an intermediate pink colour. ProTOX is broadly applicable to a range of gram-positive and gram-negative bacteria under aerobic and microaerophilic conditions. ProTOX assays were carried out using Bacillus subtilis.
Briefly, in ProTOX, the bacteria (24 hour broth) were applied to the surface of an agar matrix containing the test sample and allowed to grow for 48 hours. The assay was monitored at 24 and 48 hours and the active wells noted. Known antibiotics yield consistent colour transitions which are concentration and time dependent. These patterns provide an important guide to the early recognition of interesting characteristics.

human melanoma MM418c5 = experiment: Growth inhibition of cultured cells; assay type: cell-based
Method: as §1, §2

human prostate DU145 = experiment: Growth inhibition of cultured cells; assay type: cell-based
Method: as §1, §2

[2] = system: NS1 murine myeloma cell line; experiment: CyTOX (Cy) chromogenic cytotoxicity bioassay; assay type: cell-based; settings: for Cy LD99: weight of chemical in last well with activity, real value may be lower
From the text: CyTOX (alternatively referred to herein as Cy) is a microtitre plate bioassay use to identify potential antitumour actives. CyTOX is a chromogenic bioassay with broad application to a wide range of tumour and non-tumour cell lines.
CyTOX features a liquid media into which the test compound has been incorporated together with a novel chromogen. As the cells grow and divide the chromogen is metabolised from purple in a single step process to a colourless metabolite. CyTOX was undertaken using NS1 murine myeloma cell line as a guide to mammalian cell toxicity.
Briefly, in CyTOX the cells were applied to the media containing the test chemical and allowed to grow for 72 hours. The assay was monitored at 24, 48 and 72 hours and the active wells identified.

PKC = PKC activation in cultured tumour cells (scattering and growth inhibition of MCF7); assay type: cell-based, human; settings: defined by scattering and growth inhibition of MCF7 breast cancer cells
Trichophyton rubrum = experiment: MycoTOX (Tr) antifungal bioassay; assay type: cell-based
Method: MycoTOX (alternatively referred to herein as Tr) is a non-chromogenic bioassay used to detect activity against filamentous fungal pathogens of plants and animals. The bioassay features a solid phase agar base into which the test compound has been incorporated. As the growth patterns of filamentous fungi are readily apparent on the agar surface the extent of mycelial growth, sporulation (if relevant to the species under investigation) and colour changes with maturation are measured.
MycoTOX, involves a fungus (spore suspension or mycelial fragments) being applied to the surface of an agar matrix containing the test chemical and allowed to grow for a period of up to a week (depending on species). The assay is monitored at two discrete times to identify key development phases in the life cycle (for example mycelial growth and extent of sporulation) and the active wells noted. The monitoring times are dependent on the fungal species under investigation.
The MycoTOX assays were carried out using Trichophyton rubrum. The MycoTOX test is alternatively referred to as Tr to indicate the use of Trichophyton rubrum.

[3] = system: K562 leukemia, MCF-7 breast cancer, Colo-205 colon cancer and D04 and SKMel-5 melanoma; experiment: In vitro growth inhibition profile, sensitive versus other cell lines; assay type: cell-based, human
Method: In addition, scattering of MCF-7 and HT-29 colon tumour cells was observed, typical of PKC activators. […] Additionally, given their similarity in structure, EBI-47, EBI-59 and EBI-61 are also considered to be protein kinase C activators.
as §3, with “dose. […]” for “dose.”

MM96L cell line = experiment: Changes in morphology of cultured cells; assay type: cell-based, human
MCF-7 = experiment: Cell scattering of cultured cells; assay type: cell-based, human
[4] = weight of chemical in last well with activity, real value may be lower

| Compound | Concentration of EB548.LA4.61-29/32 At which growth inhibition was observed [1] | Concentration of EB548.LA4.61-29/32 At which growth inhibition was observed (human breast MCF-7) [µg/mL] | Concentration of EB548.LA4.61-29/32 At which growth inhibition was observed (human leukemia K562) [µg/mL] | DipH (no hatching of flies) (fly eggs) | Gi Titre (Giardia spp.) | Gi LD99 (Giardia spp.; [4]) [µg/mL] | Ne Titre (Haemonchus contortus) | Ne LD99 (Haemonchus contortus; [4]) [µg/mL] | Bs Titre (Bacillus subtilis) | Concentration of EB548.LA4.61-29/32 At which growth inhibition was observed (human melanoma MM418c5) [µg/mL] | Concentration of EB548.LA4.61-29/32 At which growth inhibition was observed (human prostate DU145) [µg/mL] | Cy Titre [2] | Cy LD99 [2] [µg/mL] | PKC activity (PKC) | Tr Titre (Trichophyton rubrum) | growth-inhibiting doses in sensitive cell lines lower than for other human tumour cell lines and normal human fibroblasts [3] | change in morphology of MM96L cells (MM96L cell line) | scattering of MCF-7 cells (MCF-7) | DipP (no pupae formation) (fly eggs) |
| --- | --- | --- | --- | --- | --- | --- | --- | --- | --- | --- | --- | --- | --- | --- | --- | --- | --- | --- | --- |
| CCC(C)C(=O)OC1C(C)C2(O)C(C3OC3(CO)C(O)C3(O)C(=O)C(C)=CC32)C2C(C)(C)C12OC(=O)C(C)CC (centres unmarked) [EBI-47, 12,13-di-(2-methylbutanoyl)-6,7-epoxy-4,5,9,12,13,20-hexahydroxy-tigliaen-3-one] | None observed at 10 μg/mL | 0.03 | 0.1 | P | 2 | 31 | 2 | 31 | 0/— | 0.03 | 10 | 4 | 16 | yes | 0/— | – | – | – | – |
| tetradecanoyl phorbol acetate [TPA, reference compound] | – | – | – | – | – | – | – | – | – | – | – | – | – | – | – | approximately 100 fold | characteristic change to bipolar morphology; also recorded: extreme bipolar morphology | scattering | – |
| CCCCC/C=C/C=C/C=C/C(=O)OC1C(C)C2(O)C(C3OC3(CO)C(O)C3(O)C(=O)C(C)=CC32)C2C(C)(C)C12OC(=O)C(C)CC (centres unmarked) [EBI-59, 12-(dodeca-2,4,6-trienoyl)-13-(2-methylbutanoyl)-6,7-epoxy-4,5,9,12,13,20-hexahydroxy-1-tigliaen-3-one] | – | – | – | A/A | – | – | 0/— | – | 0/— | – | – | 16 | 3.9 | yes | 0/— | – | – | – | A/A |
